pIC50: −log10 of the molar value.
How the values were obtained:
[1] = target: BRD4(D1) (Homo sapiens (Human), UniProt O60885); assay: Inhibitory activity against BRD4(D1), HTRF assay; format: binding
Protocol: (§1) (+)-JQ1 was used as comparison compound, to evaluated the inhibitory activity of compounds of the invention against BRD4(D1) and BRD4(D2) in vitro.
(§2) The assays of BRD4 (D1) and BRD4 (D2) were conducted in a 384-well polystyrene plate. The test compounds were first serially diluted in DMSO and the test compound/DMSO were transferred to 384-well plates. The final concentration of DMSO in the assay was 0.1%. 2 volumes of protein/peptide mixture were added into 384-well plates, then 2 volumes of assay mixture were added, and shake for 30 s. The plate was incubated at room temperature for 2 h. Then the HTRF signal on EnVision was readed.
(§3) Use equation (1) to fit the date in Excel to obtain the value of the inhibition rate. Inhibition rate (%)=(maximum value−signal value)/(maximum value−minimum value)*100 Equation(1):
(§4) IC50 determination was performed by fitting the data using GraphPad Prism 5.0 software and equation (2). Y=bottom+(Top−bottom)/(1+10^((Log IC50−X)*HillSlope)); Equation(2): wherein, Y represents the percentage of inhibition (%); X represents the concentration of test compounds.
(§5) The IC50 data of the examples were provided in the following table, wherein, A stands for IC50<100 nM; B stands for IC50 is 100-300 nM; C stands for IC50>300 nM.

[2] = target: BRD4(D2) (Homo sapiens (Human), UniProt O60885); assay: Inhibitory activity against BRD4(D2), HTRF assay; format: binding
Protocol: as §1, §2, §3, §4, §5

pIC50 ([1]; class symbols) | pIC50 ([2]; class symbols) | pIC50 ([1]; numeric values) | pIC50 ([2]; numeric values) | Molecule
> 7.00 | > 7.00 |  |  | CCS(=O)(=O)Nc1cc(-c2cn(C)c(=O)c3[nH]ccc23)nc2c1nc(C)n2Cc1ccc(C(F)(F)F)cc1 [Example 65, N-(2-methyl-5-(6-methyl-7-oxo-6,7-dihydro-1H-pyrrolo[2,3-c]pyridin-4-yl)-3-(4-(trifluoromethyl)benzyl)-3H-imidazo[4,5-b]pyridin-7-yl)ethanesulfonamide]
6.52 to 7.00 | > 7.00 |  |  | COc1cccc(Cn2c(C)nc3ncc(-c4c[nH]c(=O)c5[nH]c(C)cc45)cc32)c1 [Example 16, 4-(1-(3-methoxybenzyl)-2-methyl-1H-imidazo[4,5-b]pyridin-6-yl)-2-methyl-1,6-dihydro-7H-pyrrolo[2,3-c]pyridin-7-one]
> 7.00 | > 7.00 |  |  | Cc1nc2ncc(-c3cn(C)c(=O)c4[nH]ccc34)nc2n1Cc1ccccc1 [Example 22, 4-(1-benzyl-2-methyl-1H-imidazo[4,5-b]pyrazin-6-yl)-6-methyl-1H-pyrrolo[2,3-c]pyrid in-7(6H)-one]
> 7.00 | > 7.00 |  |  | CCS(=O)(=O)Nc1cc(-c2cn(C)c(=O)c3[nH]ccc23)cc2c1nc(C)n2Cc1ccccc1 [Example 45, N-(1-benzyl-2-methyl-6-(6-methyl-7-oxo-6,7-dihydro-1H-pyrrolo[2,3-c]pyridin-4-yl)-1H-benzo[d]imidazol-4-yl)ethanesulfonamide]
> 7.00 | > 7.00 |  |  | CCS(=O)(=O)Nc1cc(-c2cn(C)c(=O)c3[nH]ccc23)cc2c1nc(C)n2Cc1cc(C(F)(F)F)ccc1F [Example 47, N-(2-methyl-6-(6-methyl-7-oxo-6,7-dihydro-1H-pyrrolo[2,3-c]pyridin-4-yl)-1-(2-fluoro-5-(trifluoromethyl)benzyl)-1H-benzo[d]imidazol-4-yl)ethanesulfonamide]
 |  | 7.28 | 7.97 | Cc1nc2ncc(-c3cn(C)c(=O)c4[nH]ccc34)cc2n1C [Example 7, 4-(1,2-dimethyl-1H-imidazo[4,5-b]pyridin-6-yl)-6-methyl-1,6-dihydro-7H-pyrrolo[2,3-c]pyridin-7-one]
6.52 to 7.00 | 6.52 to 7.00 |  |  | COc1ccc(Cn2c(C)nc3ncc(-c4c[nH]c(=O)c5[nH]c(C)cc45)cc32)cc1 [Example 13, 4-(1-(4-methoxybenzyl)-2-methyl-1H-imidazo[4,5-b]pyridin-6-yl)-2-methyl-1,6-dihydro-7H-pyrrolo[2,3-c]pyridin-7-one]
> 7.00 | > 7.00 |  |  | CCS(=O)(=O)Nc1cc(-c2cn(C)c(=O)c3[nH]ccc23)cc2c1nc(C)n2C(C)c1ccc(Cl)cc1 (centres unmarked) [Example 44, N-(1-(1-(4-chlorophenyl)ethyl)-2-methyl-6-(6-methyl-7-oxo-6,7-dihydro-H-pyrrolo[2,3-c]pyridin-4-yl)-1H-benzo[d]imidazol-4-yl)ethanesulfonamide]
 |  | 7.98 | 8.60 | Cn1cc(-c2ccc3ccn(S(=O)(=O)c4ccc(Cl)cc4)c3n2)c2cc[nH]c2c1=O [Example 40, 4-(1-((4-chlorophenyl)sulfonyl)-1H-pyrrolo[2,3-b]pyridin-6-yl)-6-methyl-1,6-dihydro-7H-pyrrolo[2,3-c]pyridin-7-one]
< 6.52 | < 6.52 |  |  | COc1ccc(Cn2c(C)nc3ncc(-c4cn(Cc5ccccc5)c(=O)c5[nH]ccc45)cc32)cc1 [Example 10, 6-benzyl-4-(1-(4-methoxybenzyl)-2-methyl-1H-imidazo[4,5-b]pyridin-6-yl)-1,6-dihydro-7H-pyrrolo[2,3-c]pyridin-7-one]
> 7.00 | > 7.00 |  |  | CCS(=O)(=O)Nc1cc(-c2cn(C)c(=O)c3[nH]ccc23)cc2c1nc(C)n2Cc1ccc(F)cc1Cl [Example 57, N-(1-(2-chloro-4-fluorobenzyl)-2-methyl-6-(6-methyl-7-oxo-6,7-dihydro-1H-pyrrolo[2,3-c]pyridin-4-yl)-1H-benzo[d]imidazol-4-yl)ethanesulfonamide]
> 7.00 | > 7.00 |  |  | CCS(=O)(=O)Nc1cc(-c2cn(C)c(=O)c3[nH]ccc23)nc2c1nc(C)n2Cc1ccccc1C(F)(F)F [Example 66, N-(2-methyl-5-(6-methyl-7-oxo-6,7-dihydro-1H-pyrrolo[2,3-c]pyridin-4-yl)-3-(2-(trifluoromethyl)benzyl)-3H-imidazo[4,5-b]pyridin-7-yl)ethanesulfonamide]
> 7.00 | > 7.00 |  |  | Cc1nc2ncc(-c3cn(C)c(=O)c4[nH]ccc34)nc2n1Cc1cccc(Cl)c1 [Example 30, 4-(1-(3-chlorobenzyl)-2-methyl-1H-imidazo[4,5-b]pyrazin-6-yl)-6-methyl-1H-pyrrolo[2,3-c]pyridin-7(6H)-one]
 |  | 7.89 | 8.60 | COc1ccc(Cn2c(C)nc3ncc(-c4cn(C)c(=O)c5[nH]ccc45)nc32)cc1 [Example 20, 4-(1-(4-methoxybenzyl)-2-methyl-H-imidazo[4,5-b]pyrazin-6-yl)-6-methyl-1H-pyrrol o[2,3-c]pyridin-7(6H)-one]
6.52 to 7.00 | < 6.52 |  |  | COc1ccc(Cn2c(C)nc3ncc(-c4cn(Cc5nccs5)c(=O)c5[nH]ccc45)cc32)cc1 [Example 14, 4-(1-(4-methoxybenzyl)-2-methyl-1H-imidazo[4,5-b]pyridin-6-yl)-6-(thiazol-2-ylmethyl)-1,6-dihydro-7H-pyrrolo[2,3-c]pyridin-7-one]
> 7.00 | > 7.00 |  |  | CCS(=O)(=O)Nc1cc(-c2cn(C)c(=O)c3[nH]ccc23)cc2c1nc(C)n2Cc1ccc(Br)cc1 [Example 55, N-(2-methyl-6-(6-methyl-7-oxo-6,7-dihydro-1H-pyrrolo[2,3-c]pyridin-4-yl)-1-(4-bromobenzyl)-1H-benzo[d]imidazol-4-yl)ethanesulfonamide]
 |  | 7.90 | 8.49 | CSc1ccc(Cn2c(C)nc3ncc(-c4cn(C)c(=O)c5[nH]ccc45)cc32)cc1 [Example 3, 6-methyl-4-(2-methyl-1-(4-(methylthio)benzyl)-1H-imidazo[4,5-b]pyridin-6-yl)-1H-pyrrolo[2,3-c]pyridin-7(6H)-one]
6.52 to 7.00 | 6.52 to 7.00 |  |  | COC(=O)c1ccc(Cn2c(C)nc3ncc(-c4cn(C)c(=O)c5[nH]ccc45)cc32)cc1 [Example 9, methyl 4-((2-methyl-6-(6-methyl-7-oxo-6,7-dihydro-1H-pyrrolo[2,3-c]pyridin-4-yl)-1H-imidazo[4,5-b]pyridin-1-yl)methyl)benzoate]
> 7.00 | > 7.00 |  |  | Cc1nc2ncc(-c3cn(C)c(=O)c4[nH]ccc34)nc2n1Cc1ccc(C(F)(F)F)c(F)c1 [Example 28, 4-(1-(3-fluoro-4-trifluoromethylbenzyl)-2-methyl-1H-imidazo[4,5-b]pyrazin-6-yl)-6-methyl-1H-pyrrolo[2,3-c]pyridin-7(6H)-one]
> 7.00 | > 7.00 |  |  | Cc1nc2ncc(-c3cn(C)c(=O)c4[nH]ccc34)nc2n1Cc1ccc(S(C)(=O)=O)cc1 [Example 33, 6-methyl-4-(2-methyl-1-(4-(methylsulfonyl)benzyl)-1H-imidazo[4,5-b]pyrazin-6-yl)-1H-pyrrolo[2,3-c]pyridin-7(6H)-one]
 |  | 8.14 | 8.66 | Cc1cc2ncc(-c3cn(C)c(=O)c4[nH]ccc34)cc2n1Cc1c(Cl)cccc1Cl [Example 38, 4-(1-(2,6-dichlorobenzyl)-2-methyl-1H-pyrrolo[3,2-b]pyridin-6-yl)-6-methyl-1,6-dihydro-7H-pyrrolo[2,3-c]pyridin-7-one]
 |  | 7.82 | 8.54 | Cn1cc(-c2cnc3ccn(Cc4c(Cl)cccc4Cl)c3c2)c2cc[nH]c2c1=O [Example 36, 4-(1-(2,6-dichlorobenzyl)-1H-pyrrolo[3,2-b]pyridin-6-yl)-6-methyl-1,6-dihydro-7H-pyrrolo[2,3-c]pyridin-7-one]
< 6.52 | < 6.52 |  |  | Cc1nc2ncc(-c3cn(Cc4cccnc4)c(=O)c4[nH]ccc34)cc2n1Cc1ccc(Cl)cc1 [Example 17, 4-(1-(4-chlorobenzyl)-2-methyl-1H-imidazo[4,5-b]pyridin-6-yl)-6-(pyridin-3-ylmethyl)-1,6-dihydro-7H-pyrrolo[2,3-c]pyridin-7-one]
> 7.00 | > 7.00 |  |  | CCS(=O)(=O)Nc1cc(-c2cn(C)c(=O)c3[nH]ccc23)cc2c1nc(C)n2Cc1ccc(S(C)(=O)=O)cc1 [Example 56, N-(2-methyl-6-(6-methyl-7-oxo-6,7-dihydro-1H-pyrrolo[2,3-c]pyridin-4-yl)-1-(4-(methylsulfonyl)benzyl)-1H-benzo[d]imidazol-4-yl)ethanesulfonamide]
< 6.52 | < 6.52 |  |  | Cn1cc(-c2cnc3ncnc(Nc4ccc(Cl)cc4)c3c2)c2cc[nH]c2c1=O [Example 37, 4-(4-((4-chlorophenyl)amino)pyrido[2,3-d]pyrimidin-6-yl)-6-methyl-1,6-dihydro-7H-pyrrolo[2,3-c]pyridin-7-one]
> 7.00 | > 7.00 |  |  | CCS(=O)(=O)Nc1cc(-c2cn(C)c(=O)c3[nH]ccc23)nc2c1nc(C)n2Cc1c(C)cccc1C [Example 68, N-(3-(2,6-dimethylbenzyl)-2-methyl-5-(6-methyl-7-oxo-6,7-dihydro-1H-pyrrolo[2,3-c]pyridin-4-yl)-3H-imidazo[4,5-b]pyridin-7-yl)ethanesulfonamide]
 |  | 7.80 |  | (+)-JQ1 [reference compound]
